Experimental data reported in US12516044B2, “Heterocyclic compounds as immunomodulators” (Incyte Corporation, priority 2015, dated 2026).

The molecules below were run against T1, PD-1/PD-L1 protein/protein interaction (Homo sapiens, UniProt Q9NZQ7) (assay: PD-1/PD-L1 Homogeneous Time-Resolved Fluorescence (HTRF) Binding Assay). Settings: recombinant human PD-L1 (19-238) His-tag and human PD-1 (25-167) Fc tag; 25° C., PBS pH 7.4.
T1 construct: Recombinant human PD-L1 protein (19-238) with a His-tag at the C-terminus; purchased AcroBiosystems PD1-H5229 (PD-L1-His); PD1-H5257 (PD-1-Fc)
T1 sequence (Q9NZQ7 19-238): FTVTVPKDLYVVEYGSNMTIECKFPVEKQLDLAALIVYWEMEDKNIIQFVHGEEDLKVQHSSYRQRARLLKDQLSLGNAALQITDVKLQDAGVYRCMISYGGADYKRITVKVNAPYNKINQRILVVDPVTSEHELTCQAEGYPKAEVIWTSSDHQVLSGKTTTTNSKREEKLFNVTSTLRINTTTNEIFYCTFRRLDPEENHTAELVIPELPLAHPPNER
Description: Example A. PD-1/PD-L1 Homogeneous Time-Resolved Fluorescence (HTRF) Binding Assay
The assays were conducted in a standard black 384-well polystyrene plate with a final volume of 20 μL. Inhibitors were first serially diluted in DMSO and then added to the plate wells before the addition of other reaction components. The final concentration of DMSO in the assay was 1%. The assays were carried out at 25° C. in the PBS buffer (pH 7.4) with 0.05% Tween-20 and 0.1% BSA. Recombinant human PD-L1 protein (19-238) with a His-tag at the C-terminus was purchased from AcroBiosystems (PD1-H5229). Recombinant human PD-1 protein (25-167) with Fc tag at the C-terminus was also purchased from AcroBiosystems (PD1-H5257). PD-L1 and PD-1 proteins were diluted in the assay buffer and 10 μL was added to the plate well. Plates were centrifuged and proteins were preincubated with inhibitors for 40 minutes. The incubation was followed by the addition of […] of HTRF detection buffer supplemented with Europium cryptate-labeled anti-human IgG (PerkinElmer-AD0212) specific for Fc and anti-His antibody conjugated to SureLight®-Allophycocyanin (APC, PerkinElmer-AD0059H). After centrifugation, the plate was incubated at 25° C. for 60 min. before reading on a PHERAstar FS plate reader (665 nm/620 nm ratio). Final concentrations in the assay were […] PD1, 10 nM PD-L1, 1 nM europium anti-human IgG and 20 nM anti-His-Allophycocyanin. IC50 determination was performed by fitting the curve of percent control activity versus the log of the inhibitor concentration using the GraphPad Prism 5.0 software.
Work on `Cc1cc(C(=O)Nc2cccc(-c3ccccc3)c2C)ncc1CN1CCCC[C@H]1C(=O)O` [Example 32, (2S)-1-[(4-methyl-6-{[(2-methylbiphenyl-3-yl)amino]carbonyl}pyridin-3-yl)methyl]piperidine-2-carboxylic Acid] yielded an IC50 of at most 10 nM.
`Cc1c(NC(=O)c2cc(OCC3CC3)c(CNCCO)cn2)cccc1-c1ccccc1` [Example 34, 4-(cyclopropylmethoxy)-5-((2-hydroxyethylamino)methyl)-N-(2-methylbiphenyl-3-yl)picolinamide] was tested, and the IC50 was 10 to 100 nM.
Molecule `Cc1c(NC(=O)c2ccc(CNCCO)cn2)cccc1-c1ccccc1` [Example 2, 5-{[(2-hydroxyethyl)amino]methyl}-N-(2-methylbiphenyl-3-yl)pyridine-2-carboxamide] has an IC50 of 10 to 100 nM.
Work on `Cc1cc(C(=O)Nc2cccc(-c3ccccc3)c2C)ncc1CNCCO` [Example 33, 5-{[(2-hydroxyethyl)amino]methyl}-4-methyl-N-(2-methylbiphenyl-3-yl)pyridine-2-carboxamide] yielded an IC50 of at most 10 nM.
